Read-outs that look alike come from different tables or passages of the source.

For orientation: IC50 means the midpoint of a concentration-inhibition curve. As a reminder, the Ki is a measure of affinity in units of concentration, obtained from inhibition or displacement.

One data set can be described thus: Solubility in water. The conditions noted are these: physiologic pH, generally between pH 6 and 8.
Another data set deals with HIV-1 LAI. In words: Antiviral activity in acutely infected human PBMC, virus RT level. The format is cell-based. The conditions noted are these: acutely infected, virus RT level on day 6, read-out: Antiviral Activity (EC50) in PBMC infected with HIVLAI. The method, then:
(§1) Compound 2c was evaluated for antiviral activity in cells acutely and chronically infected with human immunodeficiency virus (HIV). Reverse transcriptase (RT) levels associated with virus were determined with virus concentrated from cell culture supernatants by high-speed centrifugation to reduce the chances of drug carryover in the enzyme assay using the method described in R. F. Schinazi, et al., Antimicrob. Agents Chemother., 36:2423-2431, 1992.

The next data set relates to HIV-2ROD. The description is as above. The format is cell-based. The conditions noted are these: acutely infected, virus RT level on day 6, read-out: Antiviral Activity (EC50) in PBMC infected with HIV-2ROD. The method, then: as §1
The next data set has as its system HIV-1III. The experiment in a line: Antiviral activity in chronically infected H9 cells, virus RT level. It counts as cell-based. The method, then:
as §1

Data set [1] is described as follows: Cytotoxicity in uninfected PBMC. The format is cell-based, human. The conditions noted are these: human, uninfected PBMC; thymidine uptake day 2 and cell counts day 6.
The nature of a further data set: Cytotoxicity in H9 cells. It counts as cell-based, human. Particulars: human, H9 cells; cell counts on day 6.
A short description of data set [2]: Cytotoxicity in Vero cells. Particulars: African green monkey, Vero cells; day 3. The format is cell-based.
The nature of data set [3]: Cytotoxicity in CEM cells. It counts as cell-based. Particulars: human, CEM cells; cell counts on day 6.
In a further data set the target is HIV-1 RT (Human immunodeficiency virus type 1 group M subtype B, UniProt P04585). The experiment in a line: Inhibition of recombinant p66/51 HIV-1 RT, poly(rA)n.oligo(T)12-18 template-primer. Particulars: cell-free; AZT-5′-triphosphate used for AZT; read-out: IC50 Polymerases: HIV-1 RT. The format is biochemical. Here is the method:
The compound was also evaluated for its inhibitory effect on recombinant p66/51 HIV-1 RT by using poly(rA)n.oligo(T)12-18 as the template-primer as described in Schinazi, et al. (1992, supra). Compound 2c was active against this enzyme, with a median inhibitory concentration (1C50) of 4.6 μM. This value was of the same order of magnitude as that noted for the antiviral assays (TABLE 3). […] AZT-5′ triphosphate and phosphonoformate (PFA), used as positive controls, were effective and selective against HIV-1 RT.

Another data set has as its target DNA polymerase α (Homo sapiens, UniProt P09884). In words: Inhibition of cellular DNA polymerase α, cell-free. It counts as biochemical. Particulars: AZT-5′-triphosphate used for AZT, read-out: IC50 Polymerases: DNA Polymerase α.
The subject of another data set is HIV-1 HI 12.2. The experiment in a line: Susceptibility of pretherapy AZT-susceptible isolate in acutely infected PBMC. It counts as cell-based. Particulars: Human immunodeficiency virus 1, PBMC, read-out: EC50 against pretherapy isolate. The text has this:
(§2) The availability of AZT-resistant and -susceptible viruses allowed us to evaluate the compounds of this invention for their susceptibilities to these viruses in acutely infected PBMC in two experiments. […] In the same assay, the EC50 for TIBO [(+)-(5s)-4,5,6,7-tetrahydro-5methyl-6-(3-methyl-2-butenyl)imidazo(4,5,1-jk)(1,4)benzodiazepin-2(1 H)-thione] R82150 increased >500-fold (data not shown).

Another data set has as its system HIV-1G910-6. In words: microbe, parasite or virus in culture. The format is cell-based.
Excerpt: as §2

The target in another data set is T1, HIV-1 protease (HIVP) (Human immunodeficiency virus type 1 group M subtype B, UniProt P04585).
T1 construct: HIV produces a small, dimeric aspartyl protease which specifically cleaves the polyprotein precursors
The experiment in a line: Inhibition of HIV-1 protease, HPLC assay with kinetic analysis. Particulars: 50 mM NaAc pH 5.5, 1.0 M NaCl; 5 min preincubation; fit to competitive inhibition; read-out: Ki. It counts as biochemical. Here is the method: The ability of compound 2c to inhibit the HIVP was assayed with an HPLC method as described in R. L DesJarlais, et al., Proc. Natl. Acad. Sci U.S.A., 87:6644-6648, 1990. […] Assays were performed in buffer containing 50 mM NaAc pH 5.5, 1.0 M NaCl, 5% glycerol, 1% DMSO, and 2 mM EDTA. Inhibitor was preincubated with ≈0.05 μg of enzyme for 5 minutes at which time the reaction was initiated by addition of substrate. The reaction was quenched at <15% product formation by the addition of 15 μL of 10% TFA. The cleavage products of the substrate peptide H-Lys-Ala-Arg-Val-Tyr-p-nitro-Phe-Glu-Ala-Ile-NH2 (made by Bachem, Philadelphia, Pa.) were assayed by HPLC using a 10-40% (acetonitrile, 0.1% TFA): (water, 0.1% TFA) gradient over 30 minutes at 1 mL/minute. Product was quantitated by integration of peak areas followed by comparison to product standard curves.
Determination of kinetic constants was done with the program KinetAsyst (IntelliKinetics) by fitting of the data to the equation […]] which describes competitive inhibition.

A further data set concerns PBMC. The experiment in a line: Cytotoxicity in uninfected PBMC. It counts as cell-based, human. Particulars: thymidine uptake day 2 and cell counts day 6.
Another data set relates to Vero cells. The experiment in a line: Cytotoxicity in Vero cells. It counts as cell-based. Particulars: day 3.
The subject of the next data set is CEM cells. In words: Cytotoxicity in CEM cells. The conditions noted are these: cell counts on day 6. The format is cell-based.
For data set [4], the system named is nevirapine (BI-RG587)-resistant HIV-1. In words: Susceptibility of nevirapine-resistant HIV-1. It counts as cell-based.

Chain of DNA polymerase α (P09884 whole entry): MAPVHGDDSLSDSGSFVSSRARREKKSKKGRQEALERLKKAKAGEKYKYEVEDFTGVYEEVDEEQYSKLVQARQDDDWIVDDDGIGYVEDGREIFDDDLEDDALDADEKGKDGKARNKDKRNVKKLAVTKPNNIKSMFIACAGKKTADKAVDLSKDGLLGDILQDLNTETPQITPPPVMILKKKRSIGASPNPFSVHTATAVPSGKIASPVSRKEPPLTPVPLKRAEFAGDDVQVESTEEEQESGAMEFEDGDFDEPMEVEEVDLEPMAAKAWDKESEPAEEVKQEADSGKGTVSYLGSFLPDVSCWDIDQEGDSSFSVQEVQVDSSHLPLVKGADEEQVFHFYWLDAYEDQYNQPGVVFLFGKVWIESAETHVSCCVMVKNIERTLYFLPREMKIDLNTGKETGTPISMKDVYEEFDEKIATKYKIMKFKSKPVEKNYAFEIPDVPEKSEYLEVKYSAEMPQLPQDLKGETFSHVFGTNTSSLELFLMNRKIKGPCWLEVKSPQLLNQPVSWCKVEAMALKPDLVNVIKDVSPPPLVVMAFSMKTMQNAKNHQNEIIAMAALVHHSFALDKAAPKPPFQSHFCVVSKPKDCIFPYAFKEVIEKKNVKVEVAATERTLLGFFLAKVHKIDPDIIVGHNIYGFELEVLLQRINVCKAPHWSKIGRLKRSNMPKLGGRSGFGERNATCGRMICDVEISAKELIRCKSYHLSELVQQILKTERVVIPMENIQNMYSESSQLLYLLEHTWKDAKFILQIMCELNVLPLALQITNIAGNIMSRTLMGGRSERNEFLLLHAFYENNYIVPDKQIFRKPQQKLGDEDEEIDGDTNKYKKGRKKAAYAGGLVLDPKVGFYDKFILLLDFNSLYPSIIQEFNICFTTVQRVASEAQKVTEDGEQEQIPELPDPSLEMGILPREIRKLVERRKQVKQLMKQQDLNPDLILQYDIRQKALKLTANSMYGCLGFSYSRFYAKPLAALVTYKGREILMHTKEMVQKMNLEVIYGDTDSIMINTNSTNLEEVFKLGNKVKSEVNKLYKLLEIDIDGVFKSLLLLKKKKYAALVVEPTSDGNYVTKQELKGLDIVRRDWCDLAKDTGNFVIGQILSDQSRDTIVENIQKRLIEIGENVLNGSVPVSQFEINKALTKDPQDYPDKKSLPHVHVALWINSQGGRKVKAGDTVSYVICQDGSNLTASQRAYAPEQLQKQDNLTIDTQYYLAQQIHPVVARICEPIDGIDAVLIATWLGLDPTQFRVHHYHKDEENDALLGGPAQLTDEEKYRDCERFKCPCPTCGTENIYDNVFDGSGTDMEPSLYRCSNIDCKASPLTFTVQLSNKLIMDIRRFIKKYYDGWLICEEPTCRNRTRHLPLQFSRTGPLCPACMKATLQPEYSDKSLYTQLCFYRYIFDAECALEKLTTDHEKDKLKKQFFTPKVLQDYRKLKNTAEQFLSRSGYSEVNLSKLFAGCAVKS
Chain of DNA polymerase α (Q14181 whole entry partner): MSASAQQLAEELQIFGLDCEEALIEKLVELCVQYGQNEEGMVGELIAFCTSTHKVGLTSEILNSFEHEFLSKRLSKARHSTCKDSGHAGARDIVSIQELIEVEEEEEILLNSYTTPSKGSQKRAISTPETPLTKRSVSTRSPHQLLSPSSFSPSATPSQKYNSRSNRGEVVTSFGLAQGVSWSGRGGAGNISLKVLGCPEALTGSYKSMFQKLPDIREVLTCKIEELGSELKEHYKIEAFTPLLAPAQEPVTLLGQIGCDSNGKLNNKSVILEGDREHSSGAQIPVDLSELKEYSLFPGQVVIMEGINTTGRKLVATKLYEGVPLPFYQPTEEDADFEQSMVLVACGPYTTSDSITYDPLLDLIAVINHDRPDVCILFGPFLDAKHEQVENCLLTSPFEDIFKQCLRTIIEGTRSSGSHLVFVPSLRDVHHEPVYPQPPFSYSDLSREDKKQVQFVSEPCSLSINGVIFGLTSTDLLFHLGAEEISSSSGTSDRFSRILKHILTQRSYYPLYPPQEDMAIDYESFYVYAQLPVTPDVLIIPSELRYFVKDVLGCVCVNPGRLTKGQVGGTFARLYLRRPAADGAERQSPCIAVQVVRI
Chain of DNA polymerase α (P49642 whole entry partner): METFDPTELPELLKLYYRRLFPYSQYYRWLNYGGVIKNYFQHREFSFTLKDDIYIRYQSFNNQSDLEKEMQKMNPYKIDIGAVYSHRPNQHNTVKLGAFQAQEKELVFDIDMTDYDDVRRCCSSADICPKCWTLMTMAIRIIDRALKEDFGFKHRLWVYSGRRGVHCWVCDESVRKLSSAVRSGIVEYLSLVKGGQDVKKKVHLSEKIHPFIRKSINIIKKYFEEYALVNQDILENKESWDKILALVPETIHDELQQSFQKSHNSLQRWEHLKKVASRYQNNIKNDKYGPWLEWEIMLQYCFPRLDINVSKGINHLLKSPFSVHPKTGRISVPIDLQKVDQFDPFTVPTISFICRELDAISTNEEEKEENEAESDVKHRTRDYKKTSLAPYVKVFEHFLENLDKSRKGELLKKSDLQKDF
Chain of DNA polymerase α (P49643 whole entry partner): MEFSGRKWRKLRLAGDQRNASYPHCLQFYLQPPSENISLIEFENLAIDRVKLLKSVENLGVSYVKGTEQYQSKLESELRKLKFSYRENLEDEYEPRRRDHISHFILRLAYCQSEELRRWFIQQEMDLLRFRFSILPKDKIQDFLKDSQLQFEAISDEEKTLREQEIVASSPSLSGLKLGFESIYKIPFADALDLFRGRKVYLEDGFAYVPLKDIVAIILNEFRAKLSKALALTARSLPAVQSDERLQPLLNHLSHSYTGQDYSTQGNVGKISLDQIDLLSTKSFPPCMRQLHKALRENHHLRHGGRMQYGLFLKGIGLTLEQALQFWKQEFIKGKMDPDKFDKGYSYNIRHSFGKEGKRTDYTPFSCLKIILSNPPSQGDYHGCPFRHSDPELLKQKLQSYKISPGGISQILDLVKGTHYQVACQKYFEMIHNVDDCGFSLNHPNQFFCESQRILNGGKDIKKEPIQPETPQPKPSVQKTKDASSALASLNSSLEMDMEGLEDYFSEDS

As to “4,4′-Bis(2-aminoethyl)diphenyl C61 [hydrochloride salt of compound 2b]”, the “water solubility” value in the data set “Solubility in water” is “not to be soluble”.

As to `Cc1cn([C@H]2C[C@H](N=[N+]=[N-])[C@@H](CO)O2)c(=O)[nH]c1=O` [AZT, 3′-Azido-3′-deoxythymidine, reference compound], the EC50 with HIV-1 LAI (Human immunodeficiency virus 1, PBMC, 144 h) is 4 nM; in the data set on HIV-2ROD (Human immunodeficiency virus 2, PBMC, 144 h), 3 nM; with HIV-1III (Human immunodeficiency virus 1, H9, 144 h, chronically infected, virus RT level after 6 days of treatment, read-out: Antiviral Activity (EC50) in H9 cells infected with HIV-1III), greater than 100000 nM; in the data set with HIV-1 HI 12.2, less than 1 nM; with HIV-1G910-6 (Human immunodeficiency virus 1, PBMC, read-out: EC50 against AZT-resistant HIV-1, acutely infected PBMC / lymphocytes), 180 nM. Moreover, the “effect in chronically infected H9 cells” value in the data set on HIV-1III is “no effect”. In addition, the IC50 in data set [1] is greater than 100000 nM; on HIV-1 RT, 40 nM; at DNA polymerase α, greater than 100000 nM. Further, the half-maximal inhibitory concentration (IC50) at 6 days in the data set “Cytotoxicity in H9 cells” turned out to be 60000 nM; in data set [3] it was 13000 nM. The compound also registered an IC50 at 3 days in data set [2] of 23000 nM. The “increase of EC50, AZT-resistant vs pretherapy virus” value with HIV-1G910-6 (virus pair HIV-1 HI 12.2 / HIV-1G910-6) was “more than 180 fold”.

On to `NCCc1ccc(C2(c3ccc(CCN)cc3)C34c5c6c7c8c9c%10c(c%11c%12c3c3c5c5c%13c6c6c7c7c9c9c%14c%10c%10c%11c%11c%12c%12c3c3c5c5c%13c%13c6c6c7c9c7c9c%14c%10c%10c%11c%11c%12c3c3c5c5c%13c6c7c6c9c%10c%11c3c56)C824)cc1` [Compound 2b, 4,4′-Bis(2-aminoethyl)diphenyl C61], for which the Ki at HIV-1 protease (HIVP) is roughly 2000 nM.

For the compound `O=C(O)P(=O)(O)O` [PFA, phosphonoformate, reference compound], the EC50 in the data set on HIV-1 LAI was found to be 430 nM; in the data set on HIV-2ROD, 440 nM. Also, the IC50 with PBMC is greater than 640000 nM; in the data set with Vero cells it was greater than 100000 nM; in the data set with CEM cells it was greater than 100000 nM; on HIV-1 RT it was 320 nM; on DNA polymerase α it was greater than 100000 nM.

For `CC(C)=CCN1Cc2cccc3[nH]c(=S)n(c23)C[C@@H]1C` [TIBO R82150, (+)-(5s)-4,5,6,7-tetrahydro-5methyl-6-(3-methyl-2-butenyl)imidazo(4,5,1-jk)(1,4)benzodiazepin-2(1 H)-thione, reference compound], the “increase in resistance, nevirapine-resistant vs -susceptible HIV-1” value in [4] is recorded as greater than 500 fold.

These data come from patent US20010041801A1, “Water soluble fullerenes with antiviral activity” (The Regents of the University of California, priority 1994, published 2001).
